Results published in US20250368648A1, “MULTI-CYCLIC IRAK AND FLT3 INHIBITING COMPOUNDS AND USES THEREOF” (CHILDREN'S HOSPITAL MEDICAL CENTER, priority 2022, published 2025).
pIC50: −log10 of the molar value.

What was measured:
MOLM14 D835Y cells = assay: MOLM14 D835Y cell viability assay (Cell Titer Glo); type: cell-based
Procedure: The cell line has activated FLT3 receptors which carry additional resistance mutations in the kinase domain (D835Y).
MOLM14 D835Y cells were grown in RPMI-1640 media supplemented with 20% fetal bovine serum (FBS). […] After cell addition, 23 nL of test compound were transferred into individual wells (22 doses tested for each test compound, with a 1:2 dilution series starting at 10 μM) via a 1536 pin-tool. Bortezomib (final concentration 2.3 μM) was used as a positive control for cell cytotoxicity.

IRAK4 = target: T1, IRAK4 (Homo sapiens, UniProt Q9NWZ3); assay: RBC HotSpot Kinase Assay, IRAK4; type: biochemical; set-up: purchased RBC (Reaction Biology) HotSpot assay; details: HotSpot functional assay, isolated kinase enzyme, 33P-ATP
T1 sequence (Q9NWZ3 1-460): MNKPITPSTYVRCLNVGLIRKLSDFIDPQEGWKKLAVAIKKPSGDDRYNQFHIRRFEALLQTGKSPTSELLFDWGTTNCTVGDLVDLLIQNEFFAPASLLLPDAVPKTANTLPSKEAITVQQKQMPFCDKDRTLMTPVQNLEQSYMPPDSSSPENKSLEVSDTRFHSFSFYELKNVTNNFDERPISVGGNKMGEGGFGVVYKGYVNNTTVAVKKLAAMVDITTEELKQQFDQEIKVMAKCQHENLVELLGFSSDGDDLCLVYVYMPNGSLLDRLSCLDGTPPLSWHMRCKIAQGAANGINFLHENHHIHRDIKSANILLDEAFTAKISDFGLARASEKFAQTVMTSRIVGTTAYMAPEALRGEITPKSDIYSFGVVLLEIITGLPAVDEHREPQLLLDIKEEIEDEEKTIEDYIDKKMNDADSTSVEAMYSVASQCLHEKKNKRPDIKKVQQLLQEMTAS
Description: (§1) This assay uses the isolated kinase enzyme. This assay is very useful for determining competition of the inhibitor for ATP and/or substrates and for measuring the kinetics of enzyme inhibition. […] Unlike kinase binding assays that measure competition for ATP, the HotSpot Kinase Assay is a functional assay that measures catalytic activity; as such it measures relative functional potency regardless of the mechanism of enzyme inhibition. This assay uses the form of the various enzymes that are easiest to express, which may not necessarily be the form of the enzyme that exist in the cell. (Sometimes the carboxy terminus has been truncated to aid in expression, or, if it is a receptor kinase, the enzyme itself is isolated from the other parts of the receptor that are involved in regulating kinase activity.)
(§2) The reagent used was as follows: Base Reaction buffer; 20 mM Hepes (pH 7.5), 10 mM MgCl2, 1 mM EGTA, 0.01% Brij35, 0.02 mg/mi BSA, 0.1 mM Na3VO4, 2 mM DTT, 1% DMSO. Required cofactors were added individually to each kinase reaction.
(§3) The reaction procedure was as follows: • 1) Substrates were prepared in freshly prepared Reaction Buffer. • 2) Any required cofactors were delivered to the substrate solution above. • 3) Kinase was delivered into the substrate solution and gently mixed. • 4) Compounds were delivered in 100% DMSO into the kinase reaction mixture by Acoustic technology (Echo550, nanoliter range), followed by incubation for 20 min at room temp. • 5) ^33P-ATP was delivered into the reaction mixture to initiate the reaction. • 6) The mixture was incubated for 2 hours at room temperature. • 7) Kinase activity was detected by P81 filter-binding method.

IRAK1 = target: T2, IRAK1 (Homo sapiens, UniProt P51617); assay: RBC HotSpot Kinase Assay, IRAK1; type: biochemical; details: HotSpot functional assay, isolated kinase enzyme, 33P-ATP
T2 construct: purchased RBC (Reaction Biology) HotSpot assay
Description: as §1, §2, §3

FLT3 = target: T3, FLT3 (Homo sapiens, UniProt P36888); assay: RBC HotSpot Kinase Assay, FLT3; type: biochemical; set-up: purchased RBC (Reaction Biology) HotSpot assay; details: HotSpot functional assay, isolated kinase enzyme, 33P-ATP
T3 sequence (P36888 27-993): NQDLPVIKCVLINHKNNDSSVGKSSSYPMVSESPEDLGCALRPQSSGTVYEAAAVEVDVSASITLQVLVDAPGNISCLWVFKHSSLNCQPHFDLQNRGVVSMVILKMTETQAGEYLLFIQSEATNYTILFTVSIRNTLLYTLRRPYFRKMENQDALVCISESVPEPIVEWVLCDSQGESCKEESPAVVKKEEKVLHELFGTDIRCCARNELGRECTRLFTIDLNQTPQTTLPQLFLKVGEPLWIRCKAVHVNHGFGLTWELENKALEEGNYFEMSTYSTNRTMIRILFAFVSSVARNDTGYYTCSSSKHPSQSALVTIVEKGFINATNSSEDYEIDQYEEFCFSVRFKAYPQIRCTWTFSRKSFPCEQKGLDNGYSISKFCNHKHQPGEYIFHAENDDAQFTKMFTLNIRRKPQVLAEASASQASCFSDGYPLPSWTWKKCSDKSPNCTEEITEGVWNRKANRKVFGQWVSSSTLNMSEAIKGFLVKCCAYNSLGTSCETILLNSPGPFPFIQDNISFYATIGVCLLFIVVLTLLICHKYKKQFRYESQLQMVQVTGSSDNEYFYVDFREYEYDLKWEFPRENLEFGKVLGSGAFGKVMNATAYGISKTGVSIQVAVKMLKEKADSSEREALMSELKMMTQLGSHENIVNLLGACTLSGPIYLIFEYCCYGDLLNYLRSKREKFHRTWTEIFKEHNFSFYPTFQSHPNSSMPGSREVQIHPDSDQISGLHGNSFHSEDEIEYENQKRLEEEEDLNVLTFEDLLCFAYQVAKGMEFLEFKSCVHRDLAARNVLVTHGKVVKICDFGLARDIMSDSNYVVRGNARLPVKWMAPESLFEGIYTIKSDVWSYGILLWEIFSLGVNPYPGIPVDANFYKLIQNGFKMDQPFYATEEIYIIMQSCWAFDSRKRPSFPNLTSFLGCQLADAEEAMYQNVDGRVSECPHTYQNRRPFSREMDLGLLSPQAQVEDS
Description: as §1, §2, §3

T2 sequence (P51617 whole entry): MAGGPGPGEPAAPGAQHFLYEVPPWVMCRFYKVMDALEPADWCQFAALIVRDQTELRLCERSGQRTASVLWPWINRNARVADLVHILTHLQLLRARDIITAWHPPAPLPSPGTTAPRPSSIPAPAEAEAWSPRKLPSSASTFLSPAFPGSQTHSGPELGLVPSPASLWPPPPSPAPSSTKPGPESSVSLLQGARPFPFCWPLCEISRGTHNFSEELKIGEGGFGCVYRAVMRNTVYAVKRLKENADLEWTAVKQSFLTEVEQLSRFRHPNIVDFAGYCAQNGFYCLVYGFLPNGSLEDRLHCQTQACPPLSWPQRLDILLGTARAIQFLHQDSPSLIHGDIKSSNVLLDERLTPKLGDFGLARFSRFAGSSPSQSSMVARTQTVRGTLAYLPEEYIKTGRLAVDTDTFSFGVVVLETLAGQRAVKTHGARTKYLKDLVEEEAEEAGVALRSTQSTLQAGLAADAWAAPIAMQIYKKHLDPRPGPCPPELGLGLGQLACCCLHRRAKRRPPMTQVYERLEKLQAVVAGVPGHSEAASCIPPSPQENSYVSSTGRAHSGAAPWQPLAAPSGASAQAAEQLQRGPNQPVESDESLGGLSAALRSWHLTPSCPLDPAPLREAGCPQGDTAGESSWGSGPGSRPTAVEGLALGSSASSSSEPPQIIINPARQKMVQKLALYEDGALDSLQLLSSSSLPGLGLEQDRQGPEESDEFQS

## COc1cc2ncc(-c3ccc(C)c(N[C@H]4CNCC[C@@H]4F)n3)n2nc1C1CC1 [Compound 38a, 6-(6-cyclopropyl-7-methoxyimidazo[1,2-b]pyridazin-3-yl)-N-((3S,4S)-4-fluoropiperidin-3-yl)-3-methylpyridin-2-amine]
MOLM14 D835Y cells; Homo sapiens, MOLM-14, 48 h
  pIC50: 5.54
IRAK4
  pIC50: 5.15
IRAK1
  pIC50: < 5.00
FLT3
  pIC50: 7.30

## COc1cc2ncc(-c3nc(N[C@@H]4CCCNC4)c(F)cc3F)n2nc1C1CCC1 [Compound 14a, (R)-6-(6-cyclobutyl-7-methoxyimidazo[1,2-b]pyridazin-3-yl)-3,5-difluoro-N-(piperidin-3-yl)pyridin-2-amine]
MOLM14 D835Y cells; Homo sapiens, MOLM-14, 48 h
  pIC50: 7.82
IRAK4
  pIC50: 8.40
IRAK1
  pIC50: 7.92
FLT3
  pIC50: > 9.30

## COc1cc2ncc(-c3cccc(N[C@H]4CNCC[C@@H]4F)n3)n2nc1N1CCCC1=O [Compound 26a, 1-(3-(6-(((3S,4S)-4-fluoropiperidin-3-yl)amino)pyridin-2-yl)-7-methoxyimidazo[1,2-b]pyridazin-6-yl)pyrrolidin-2-one]
MOLM14 D835Y cells; Homo sapiens, MOLM-14, 48 h
  pIC50: 6.59
IRAK4
  pIC50: 6.63
IRAK1
  pIC50: 6.54
FLT3
  pIC50: 9.05

## COc1cc2ncc(-c3ccc(F)c(N[C@H]4CNCC[C@@H]4F)n3)n2nc1C(C)(C)O [Compound 1a, 2-(3-(5-fluoro-6-(((3S,4S)-4-fluoropiperidin-3-yl)amino)pyridin-2-yl)-7-methoxyimidazo[1,2-b]pyridazin-6-yl)propan-2-ol]
MOLM14 D835Y cells; Homo sapiens, MOLM-14, 48 h
  pIC50: 6.74
IRAK4
  pIC50: 6.80
IRAK1
  pIC50: 5.63
FLT3
  pIC50: 8.52

## COc1cc2ncc(-c3ccc(F)c(N[C@H]4CNCC[C@@H]4F)n3)n2nc1C1CC1 [Compound 48a, 6-(6-cyclopropyl-7-methoxyimidazo[1,2-b]pyridazin-3-yl)-3-fluoro-N-((3S,4S)-4-fluoropiperidin-3-yl)pyridin-2-amine]
MOLM14 D835Y cells; Homo sapiens, MOLM-14, 48 h
  pIC50: 7.59
IRAK4
  pIC50: 9.00
IRAK1
  pIC50: 6.77
FLT3
  pIC50: > 9.30

## COc1cc2ncc(-c3nc(N[C@@H]4CCCNC4)ccc3F)n2nc1C1CC1 [Compound 44a, (R)-6-(6-cyclopropyl-7-methoxyimidazo[1,2-b]pyridazin-3-yl)-5-fluoro-N-(piperidin-3-yl)pyridin-2-amine]
MOLM14 D835Y cells; Homo sapiens, MOLM-14, 48 h
  pIC50: 8.52
IRAK4
  pIC50: 8.70
IRAK1
  pIC50: 7.21
FLT3
  pIC50: > 9.30

## COc1cc2ncc(-c3nc(N[C@@H]4CCCNC4)ccc3F)n2nc1C(C)(C)O [Compound 3a]
MOLM14 D835Y cells; Homo sapiens, MOLM-14, 48 h
  pIC50: 7.34
IRAK4
  pIC50: 6.83
IRAK1
  pIC50: 6.36
FLT3
  pIC50: 9.00

## COc1cc2ncc(-c3cccc(N[C@H]4CNC[C@@H]4F)n3)n2nc1N1CCCC1=O [Compound 25a, 1-(3-(6-(((3S,4S)-4-fluoropyrrolidin-3-yl)amino)pyridin-2-yl)-7-methoxyimidazo[1,2-b]pyridazin-6-yl)pyrrolidin-2-one]
MOLM14 D835Y cells; Homo sapiens, MOLM-14, 48 h
  pIC50: 5.99
IRAK4
  pIC50: 6.47
IRAK1
  pIC50: 6.55
FLT3
  pIC50: 9.00

## COc1cc2ncc(-c3nc(N[C@H]4CNC[C@@H]4F)ccc3C)n2nc1C1CC1 [Compound 43a, 6-(6-cyclopropyl-7-methoxyimidazo[1,2-b]pyridazin-3-yl)-N-((3S,4S)-4-fluoropyrrolidin-3-yl)-5-methylpyridin-2-amine]
MOLM14 D835Y cells; Homo sapiens, MOLM-14, 48 h
  pIC50: 6.19
IRAK4
  pIC50: 6.47
IRAK1
  pIC50: 5.08
FLT3
  pIC50: 9.15

## Fc1cc(F)c(-c2cnc3cc(OCC(F)F)cnn23)nc1N[C@H]1CNC[C@@H]1F [Compound 82a, 6-(7-(2,2-difluoroethoxy)imidazo[1,2-b]pyridazin-3-yl)-3,5-difluoro-N-((3 S,4S)-4-fluoropyrrolidin-3-yl)pyridin-2-amine]
MOLM14 D835Y cells; Homo sapiens, MOLM-14, 48 h
  pIC50: 6.69
IRAK4
  pIC50: 8.05
IRAK1
  pIC50: 6.36
FLT3
  pIC50: > 9.30

## COc1cc2ncc(-c3nc(N[C@@H]4CCCNC4)c(F)cc3F)n2nc1C(C)(O)C(F)(F)F (single isomer, unassigned) [Compound 79a]
MOLM14 D835Y cells; 48 hours
  pIC50: 7.09
IRAK4
  pIC50: 6.28
IRAK1
  pIC50: 6.09
FLT3
  pIC50: > 9.30

## COc1cc2ncc(-c3nc(N[C@H]4CNC[C@@H]4F)c(F)cc3F)n2nc1C(C)(O)C(F)(F)F (single isomer, unassigned) [Compound 78a]
MOLM14 D835Y cells; 48 hours
  pIC50: 6.64
IRAK4
  pIC50: 7.04
IRAK1
  pIC50: 6.01
FLT3
  pIC50: 9.00

## Fc1cc(F)c(-c2cnc3cc(OCC(F)F)cnn23)nc1N[C@H]1CNCC[C@@H]1F [Compound 84a, 6-(7-(2,2-difluoroethoxy)imidazo[1,2-b]pyridazin-3-yl)-3,5-difluoro-N-((3S,4S)-4-fluoropiperidin-3-yl)pyridin-2-amine]
MOLM14 D835Y cells; Homo sapiens, MOLM-14, 48 h
  pIC50: 7.34
IRAK4
  pIC50: 8.40
IRAK1
  pIC50: 6.07
FLT3
  pIC50: > 9.30

## COc1cc2ncc(-c3nc(N[C@H]4CNC[C@@H]4F)ccc3F)n2nc1C(C)(C)O [Compound 2a, 2-(3-(3-fluoro-6-(((3S,4S)-4-fluoropyrrolidin-3-yl)amino)pyridin-2-yl)-7-methoxyimidazo[1,2-b]pyridazin-6-yl)propan-2-ol]
MOLM14 D835Y cells; Homo sapiens, MOLM-14, 48 h
  pIC50: 6.89
IRAK4
  pIC50: 7.62
IRAK1
  pIC50: 6.21
FLT3
  pIC50: 9.10

## COc1cc2ncc(-c3cc(-c4ccccc4)cc(N[C@H]4CNC[C@@H]4F)n3)n2nc1C1CC1 [Compound 54a, 6-(6-cyclopropyl-7-methoxyimidazo[1,2-b]pyridazin-3-yl)-N-((3S,4S)-4-fluoropyrrolidin-3-yl)-4-phenylpyridin-2-amine]
IRAK4
  pIC50: 5.19
IRAK1
  pIC50: 5.02
FLT3
  pIC50: 6.02

## COc1cc2ncc(-c3nc(N[C@H]4CNC[C@@H]4F)c(F)cc3F)n2nc1C12CC(C1)C2 [Compound 66a, 6-(6-(bicyclo[1.1.1]pentan-1-yl)-7-methoxyimidazo[1,2-b]pyridazin-3-yl)-3,5-difluoro-N-((3S,4S)-4-fluoropyrrolidin-3-yl)pyridin-2-amine]
IRAK4
  pIC50: 8.70
IRAK1
  pIC50: 7.68
FLT3
  pIC50: > 9.30

## COc1cc2ncc(-c3cc(Oc4ccccc4)cc(N[C@@H]4CCCNC4)n3)n2nc1C1CC1 [Compound 59a, (R)-6-(6-cyclopropyl-7-methoxyimidazo[1,2-b]pyridazin-3-yl)-4-phenoxy-N-(piperidin-3-yl)pyridin-2-amine]
IRAK4
  pIC50: < 5.00
IRAK1
  pIC50: < 5.00
FLT3
  pIC50: 7.02

## COc1cc2ncc(-c3nc(N[C@H]4CNCC[C@@H]4F)c(C)cc3C)n2nc1C1CC1 [Compound 64a, 6-(6-cyclopropyl-7-methoxyimidazo[1,2-b]pyridazin-3-yl)-N-((3S,4S)-4-fluoropiperidin-3-yl)-3,5-dimethylpyridin-2-amine]
IRAK4
  pIC50: < 5.00
IRAK1
  pIC50: < 5.00
FLT3
  pIC50: 6.09
